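48-hour exposure; five concentrations; linearly interpolated endpoints. The concentration for 50% growth inhibition is given as GI50. TGI: total growth inhibition.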 Where a SMILES comes first, the peptide text is derived from it. [ ]: non-standard residue; d: D form. ξ: configuration not given here. ξLac(3-iPr) = CC(C)CC(O)C(=O)O; NMeV = CN[CH](C(=O)O)C(C)C; NMeA = CN[CH](C)C(=O)O; βAla = NCCC(=O)O
Columns and labels:
Assay in all cases: NCI-60 cell line screen, 48 h
K-562 leukemia = test system: K-562 leukemia
HCT-15 colon = test system: HCT-15 colon
OVCAR-4 ovarian = test system: OVCAR-4 ovarian
SN12C renal = test system: SN12C renal
OVCAR-5 ovarian = test system: OVCAR-5 ovarian
COLO 205 colon = test system: COLO 205 colon
UO-31 renal = test system: UO-31 renal
HCT-116 colon = test system: HCT-116 colon
U251 CNS = test system: U251 CNS
NCI-H226 lung = test system: NCI-H226 lung
M14 melanoma = test system: M14 melanoma
OVCAR-8 ovarian = test system: OVCAR-8 ovarian
IGROV1 ovarian = test system: IGROV1 ovarian

| Compound | TGI (K-562 leukemia) | TGI (HCT-15 colon) | TGI (OVCAR-4 ovarian) | TGI (SN12C renal) | TGI (OVCAR-5 ovarian) | TGI (COLO 205 colon) | TGI (UO-31 renal) | TGI (HCT-116 colon) | TGI (U251 CNS) | TGI (NCI-H226 lung) | TGI (M14 melanoma) | TGI (OVCAR-8 ovarian) | TGI (IGROV1 ovarian) | GI50 (K-562 leukemia) | GI50 (HCT-15 colon) | GI50 (OVCAR-8 ovarian) | GI50 (HCT-116 colon) | GI50 (NCI-H226 lung) | GI50 (IGROV1 ovarian) | GI50 (M14 melanoma) |
| --- | --- | --- | --- | --- | --- | --- | --- | --- | --- | --- | --- | --- | --- | --- | --- | --- | --- | --- | --- | --- |
| O=C1/C(=C/c2ccc(Oc3ccccc3)cc2)N=C(c2ccccc2)N1c1ccc(S(=O)(=O)Nc2nccs2)cc1 | > 100 µM | 70.1 µM | > 100 µM | > 100 µM | > 100 µM | 22.2 µM | 78.2 µM | 35.4 µM | > 100 µM | > 100 µM | 72.3 µM |  |  |  |  |  |  |  |  |  |
| CCN(CC)c1ccc2nc3ccc(N=Nc4c(O)ccc5ccccc45)cc3[n+](-c3ccccc3)c2c1 | > 100 µM | > 100 µM | > 100 µM | > 100 µM | > 100 µM | > 100 µM | > 100 µM | > 100 µM | > 100 µM | > 100 µM | > 100 µM | > 100 µM | > 100 µM |  |  |  |  |  |  |  |
| Cc1ccc(C2COc3cc(O)c(O)cc3C2)cc1 (stereo unspecified) | 42.8 µM | 31.8 µM | 62 µM | 103 µM | 244 µM | 26.2 µM | 101 µM | 23.7 µM | 94.3 µM | 235 µM |  | 44.7 µM | 38.5 µM |  |  |  |  |  |  |  |
| N#CC(C#N)N=Nc1ccc(-c2nc3ccccc3o2)cc1 | 54.7 µM | 38.5 µM | > 100 µM | 30.5 µM | 36.1 µM | 23.9 µM | 26 µM | 19.5 µM | 29.7 µM |  | 31.2 µM | > 100 µM | 93.2 µM |  |  |  |  |  |  |  |
| C[C@]12CC[C@@H]3c4ccc(O)cc4CC[C@H]3[C@@H]1CC[C@@H]2OC(=O)CCc1ccccc1 | 33.9 µM | 33 µM | 39.1 µM | 49.6 µM | > 100 µM | 37.1 µM | 33.8 µM | 48.4 µM | 38.1 µM | 36.8 µM | 37.8 µM | 51 µM | 43.9 µM |  |  |  |  |  |  |  |
| O=C1C=CC(=O)c2c(O)c(Br)c(Br)c(O)c21 | 1.75 µM | 4.83 µM | 9.08 µM | 18.4 µM | 30.8 µM | 2.46 µM | 6.65 µM | 8.57 µM | 33.7 µM | 55.6 µM | 3.79 µM | 25.7 µM | 29.7 µM |  |  |  |  |  |  |  |
| O=C(O)CCC(N=NNc1ccc(-c2nc3ccccc3[nH]2)cc1)C(=O)O (stereo unspecified) | > 100 µM | > 100 µM | > 100 µM | > 100 µM | > 100 µM | > 100 µM | > 100 µM | > 100 µM | > 100 µM | > 100 µM | > 100 µM | > 100 µM | > 100 µM |  |  |  |  |  |  |  |
| CCC(C)C1NC(=O)C2CCCN2C(=O)C(CC(C)C)OC(=O)CCNC(=O)C(C)N(C)C(=O)C(C(C)C)N(C)C1=O (stereo unspecified) (cyclo([ξLac(3-iPr)]PI[NMeV][NMeA][βAla]); configuration not given here) | > 100 µM | > 100 µM | > 100 µM | > 100 µM | > 100 µM | 17.2 µM | > 42 µM | 19.6 µM | > 100 µM | > 45.9 µM | 6.49 µM | 29.2 µM | > 100 µM |  |  |  |  |  |  |  |
| COc1cc(C(=O)CC2OC(=O)C(Cl)=C2Cl)ccc1Cl (stereo unspecified) | > 100 µM | > 100 µM | > 100 µM | > 100 µM | > 100 µM | > 100 µM | > 100 µM | > 100 µM | > 100 µM | > 100 µM | > 100 µM | > 100 µM | > 100 µM |  |  |  |  |  |  |  |
| CO/N=C\c1cc(O)c(O)c(/C=N/OC)c1 | > 100 µM | > 100 µM | > 100 µM | > 100 µM | > 100 µM | > 100 µM | > 100 µM | > 100 µM | > 100 µM | 88.9 µM | > 100 µM | > 100 µM | > 100 µM |  |  |  |  |  |  |  |
| O=C(c1ccccc1)c1nc2ccc(Cl)cc2c2c1CCCO2 | > 100 µM | > 100 µM | > 100 µM | > 100 µM | > 100 µM | > 100 µM | > 100 µM | > 100 µM | > 100 µM | > 100 µM | > 100 µM | > 100 µM | > 100 µM |  |  |  |  |  |  |  |
| N#C/C(=C\c1ccc(Br)cc1)n1nnc2cc(Cl)c(Cl)cc21 | > 100 µM | 5.17 µM |  |  |  |  |  | 3.08 µM |  | > 100 µM | 5.03 µM | > 100 µM | 4.53 µM | 2.31 µM | 1.67 µM | 2.17 µM | 1.43 µM | 3.59 µM | 2 µM | 1.92 µM |
| O=C(N/N=C/c1ccc([N+](=O)[O-])cc1)Nc1ccc(Br)cc1 | > 100 µM | > 100 µM | > 100 µM | > 100 µM | > 100 µM | > 100 µM | > 100 µM | > 100 µM | > 100 µM | > 100 µM | > 100 µM | > 100 µM | > 100 µM |  |  |  |  |  |  |  |
| Clc1ccc(C[P+]2(c3ccccc3)CCCCC2)cc1 | > 100 µM | > 100 µM |  | > 100 µM | > 100 µM | > 100 µM | > 100 µM | > 100 µM | > 100 µM | > 100 µM | > 100 µM | > 100 µM | > 100 µM |  |  |  |  |  |  |  |
| CC(NC(=O)c1ccc(NP(=O)(OCc2ccc([N+](=O)[O-])o2)N(C)CCCCCl)cc1)c1ccc(OCC2CCCCC2)c(C(N)=O)c1 (stereo unspecified) | 83.2 µM | > 100 µM | 49.6 µM | 47.5 µM | 73.7 µM | 22.8 µM | > 100 µM | 31.6 µM | 49.9 µM | 45.1 µM |  | > 100 µM | 45.9 µM |  |  |  |  |  |  |  |
| O=C1c2ccccc2C(=O)c2c(Nc3cc4c5c(ccc6c7ccc8c9c(cc(Nc%10cccc%11c%10C(=O)c%10ccccc%10C%11=O)c(c3c56)c97)-c3ccccc3C8=O)C(=O)c3ccccc3-4)cccc21 | > 100 µM | > 100 µM | > 100 µM | > 100 µM | > 100 µM | > 100 µM | > 100 µM | > 100 µM | 55 µM | > 100 µM | > 100 µM | > 100 µM | > 100 µM |  |  |  |  |  |  |  |
| O=C(c1ccccc1)C1C(c2ccccc2)N1S(=O)(=O)c1ccccc1 (stereo unspecified) | > 100 µM | > 100 µM | > 100 µM | > 100 µM | > 100 µM | > 100 µM | > 100 µM | > 100 µM | > 100 µM | > 100 µM | > 100 µM | > 100 µM | > 100 µM |  |  |  |  |  |  |  |
| OCc1cc2ccncc2c2c1[nH]c1ccccc12 | > 100 µM | 91.5 µM | 26.8 µM | 30.3 µM | 26.7 µM | 29.4 µM | 28 µM | 15.7 µM | 18.9 µM | 6.71 µM | 43.8 µM | 49.3 µM | 17.1 µM |  |  |  |  |  |  |  |
| Cc1nc2[nH]ncn2c(=O)c1CCCl | > 10 µM | > 10 µM | > 10 µM | > 10 µM | > 10 µM | > 10 µM | > 10 µM | > 10 µM | > 10 µM | > 10 µM | > 10 µM | > 10 µM | > 10 µM |  |  |  |  |  |  |  |
| CC(=O)n1cc(OP(=O)(Oc2ccccc2)Oc2ccccc2)c2ccccc21 | 67.4 µM | > 100 µM | 73.3 µM | > 100 µM |  | 27.2 µM | > 100 µM | 92.2 µM | > 100 µM | > 100 µM | 52.1 µM | > 100 µM | > 100 µM |  |  |  |  |  |  |  |
| Clc1ccc(OCc2nnc3sc(-c4ccc(-c5ccc(Cl)cc5Cl)o4)nn23)cc1 | > 100 µM | > 100 µM | > 100 µM | > 100 µM | > 100 µM | > 100 µM | > 100 µM | > 100 µM | > 100 µM | > 100 µM | > 100 µM | > 100 µM | > 100 µM |  |  |  |  |  |  |  |
| CN=C(N)c1ccc(N=C(N)c2ccc(C(N)=Nc3ccc(C(N)=NC)cc3)cc2)cc1 | > 100 µM | > 100 µM | > 100 µM | > 100 µM | > 100 µM | > 100 µM | > 100 µM |  | > 100 µM | > 100 µM | > 100 µM | > 100 µM | > 100 µM |  |  |  |  |  |  |  |
| Cc1ccc2c(ccc(/C=C\c3cc(C)c4cccnc4c3O)[n+]2C)c1 | > 100 µM |  | 39 µM | 24.7 µM | > 100 µM | 71.9 µM | 66 µM | 19.6 µM | 68.7 µM | 3.98 µM | 25.5 µM | 24.1 µM | > 100 µM |  |  |  |  |  |  |  |
| CC1(C)N=C(N)N=C(N)N1c1cccc(C(=O)Nc2ccc(S(=O)(=O)F)cc2)c1 | > 100 µM | > 100 µM | > 100 µM | > 100 µM | > 100 µM | > 100 µM | > 100 µM | > 100 µM | > 100 µM | > 100 µM | > 100 µM | > 100 µM | > 100 µM |  |  |  |  |  |  |  |
| Oc1c(Br)cc(/C=C/c2cccc(/C=C/c3cc(Br)c(O)c(Br)c3)n2)cc1Br | 23.7 µM | 26.3 µM | 35.7 µM | 24.3 µM | 32.3 µM | 32.1 µM | 28.4 µM | 21 µM | 21.2 µM |  | 34.9 µM | 41.7 µM | 27.7 µM |  |  |  |  |  |  |  |
